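Values below derive from 48-hour exposures of cells grown in 96-well plates, with endpoints linearly interpolated between the two concentrations bracketing the appropriate inhibition level. GI50 = concentration required for 50% inhibition of growth. TGI: total growth inhibition.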
Assays:
Test in all cases: NCI anticancer screen, dose series, 48 h
UACC-257 melanoma = tested on: UACC-257 melanoma
HCC-2998 colon = tested on: HCC-2998 colon
SR leukemia = tested on: SR leukemia
OVCAR-4 ovarian = tested on: OVCAR-4 ovarian
NCI-H226 lung = tested on: NCI-H226 lung
M14 melanoma = tested on: M14 melanoma
MOLT-4 leukemia = tested on: MOLT-4 leukemia
NCI-H23 lung = tested on: NCI-H23 lung
HCT-116 colon = tested on: HCT-116 colon
K-562 leukemia = tested on: K-562 leukemia
MALME-3M melanoma = tested on: MALME-3M melanoma
SF-295 CNS = tested on: SF-295 CNS
UO-31 renal = tested on: UO-31 renal
HT29 colon = tested on: HT29 colon
HOP-62 NSCLC = tested on: HOP-62 NSCLC
MDA-MB-231 breast = tested on: MDA-MB-231 breast
LOX IMVI melanoma = tested on: LOX IMVI melanoma
SK-OV-3 ovarian = tested on: SK-OV-3 ovarian
SNB-75 CNS = tested on: SNB-75 CNS
MDA-MB-435 = tested on: MDA-MB-435
RPMI-8226 leukemia = tested on: RPMI-8226 leukemia
OVCAR-3 ovarian = tested on: OVCAR-3 ovarian
SK-MEL-2 melanoma = tested on: SK-MEL-2 melanoma
COLO 205 colon = tested on: COLO 205 colon
HL-60(TB) leukemia = tested on: HL-60(TB) leukemia
KM12 colon = tested on: KM12 colon
HS 578T breast = tested on: HS 578T breast
CCRF-CEM leukemia = tested on: CCRF-CEM leukemia
SF-268 CNS = tested on: SF-268 CNS
NCI-H522 lung = tested on: NCI-H522 lung
A498 renal = tested on: A498 renal
SW-620 colon = tested on: SW-620 colon
RXF 393 renal = tested on: RXF 393 renal
SN12C renal = tested on: SN12C renal
HOP-92 NSCLC = tested on: HOP-92 NSCLC
CAKI-1 renal = tested on: CAKI-1 renal
UACC-62 melanoma = tested on: UACC-62 melanoma
ACHN renal = tested on: ACHN renal
HCT-15 colon = tested on: HCT-15 colon
SF-539 CNS = tested on: SF-539 CNS
PC-3 prostate = tested on: PC-3 prostate
A549 NSCLC = tested on: A549 NSCLC
MCF7 breast = tested on: MCF7 breast
786-0 renal = tested on: 786-0 renal
TK-10 renal = tested on: TK-10 renal
NCI/ADR-RES ovarian = tested on: NCI/ADR-RES ovarian
BT-549 breast = tested on: BT-549 breast
OVCAR-8 ovarian = tested on: OVCAR-8 ovarian
IGROV1 ovarian = tested on: IGROV1 ovarian
DU-145 prostate = tested on: DU-145 prostate
SNB-19 CNS = tested on: SNB-19 CNS
OVCAR-5 ovarian = tested on: OVCAR-5 ovarian
SK-MEL-28 melanoma = tested on: SK-MEL-28 melanoma
NCI-H460 lung = tested on: NCI-H460 lung
U251 CNS = tested on: U251 CNS

Cc1cc(C)c(C#N)c(SCC(=O)c2sc3c(C#N)c(C)cc(C)[n+]3c2[O-])n1
GI50 (UACC-257 melanoma): 0.531 µM
TGI (UACC-257 melanoma): > 100 µM
GI50 (HCC-2998 colon): 0.867 µM
TGI (HCC-2998 colon): > 100 µM
GI50 (SR leukemia): 0.228 µM
TGI (SR leukemia): > 100 µM
GI50 (OVCAR-4 ovarian): 2.24 µM
TGI (OVCAR-4 ovarian): > 100 µM
GI50 (NCI-H226 lung): 1.33 µM
TGI (NCI-H226 lung): > 100 µM
GI50 (M14 melanoma): 0.309 µM
GI50 (MOLT-4 leukemia): 0.596 µM
TGI (MOLT-4 leukemia): > 100 µM
GI50 (NCI-H23 lung): 0.697 µM
TGI (NCI-H23 lung): > 100 µM
GI50 (HCT-116 colon): 0.367 µM
TGI (HCT-116 colon): > 100 µM
GI50 (K-562 leukemia): 0.376 µM
TGI (K-562 leukemia): > 100 µM
GI50 (MALME-3M melanoma): 4.24 µM
TGI (MALME-3M melanoma): > 100 µM
GI50 (SF-295 CNS): 0.307 µM
TGI (SF-295 CNS): > 29.3 µM
GI50 (UO-31 renal): 1.14 µM
TGI (UO-31 renal): > 100 µM
GI50 (HT29 colon): 0.329 µM
TGI (HT29 colon): 1.76 µM
GI50 (HOP-62 NSCLC): 4.17 µM
TGI (HOP-62 NSCLC): > 100 µM
GI50 (MDA-MB-231 breast): 0.89 µM
TGI (MDA-MB-231 breast): > 100 µM
GI50 (LOX IMVI melanoma): 0.75 µM
TGI (LOX IMVI melanoma): > 100 µM
GI50 (SK-OV-3 ovarian): 0.678 µM
TGI (SK-OV-3 ovarian): > 100 µM
GI50 (SNB-75 CNS): 0.336 µM
TGI (SNB-75 CNS): > 27.2 µM
GI50 (MDA-MB-435): 0.0979 µM
TGI (MDA-MB-435): 0.538 µM
GI50 (RPMI-8226 leukemia): 0.491 µM
TGI (RPMI-8226 leukemia): > 100 µM
GI50 (OVCAR-3 ovarian): 0.34 µM
TGI (OVCAR-3 ovarian): 1.08 µM
GI50 (SK-MEL-2 melanoma): 0.624 µM
TGI (SK-MEL-2 melanoma): 56.2 µM
GI50 (COLO 205 colon): 0.383 µM
TGI (COLO 205 colon): 6.25 µM
GI50 (HL-60(TB) leukemia): 0.277 µM
TGI (HL-60(TB) leukemia): 0.892 µM
GI50 (KM12 colon): 0.401 µM
TGI (KM12 colon): > 100 µM
GI50 (HS 578T breast): 0.335 µM
TGI (HS 578T breast): > 100 µM
GI50 (CCRF-CEM leukemia): 0.333 µM
TGI (CCRF-CEM leukemia): > 100 µM
GI50 (SF-268 CNS): 1.13 µM
TGI (SF-268 CNS): > 100 µM
GI50 (NCI-H522 lung): 0.244 µM
TGI (NCI-H522 lung): 0.692 µM
GI50 (A498 renal): 0.135 µM
TGI (A498 renal): 2.07 µM
GI50 (SW-620 colon): 0.34 µM
TGI (SW-620 colon): > 100 µM
GI50 (RXF 393 renal): 0.238 µM
TGI (RXF 393 renal): 0.777 µM
GI50 (SN12C renal): 0.534 µM
TGI (SN12C renal): > 100 µM
GI50 (HOP-92 NSCLC): 0.514 µM
TGI (HOP-92 NSCLC): > 50.7 µM
GI50 (CAKI-1 renal): 0.617 µM
TGI (CAKI-1 renal): > 100 µM
GI50 (UACC-62 melanoma): 0.559 µM
TGI (UACC-62 melanoma): > 100 µM
GI50 (ACHN renal): 0.725 µM
TGI (ACHN renal): > 100 µM
GI50 (HCT-15 colon): 0.242 µM
TGI (HCT-15 colon): > 100 µM
GI50 (SF-539 CNS): 0.0881 µM
TGI (SF-539 CNS): 0.501 µM
GI50 (PC-3 prostate): 0.436 µM
TGI (PC-3 prostate): > 100 µM
GI50 (A549 NSCLC): 0.474 µM
TGI (A549 NSCLC): > 100 µM
GI50 (MCF7 breast): 0.166 µM
TGI (MCF7 breast): > 100 µM
GI50 (786-0 renal): 0.692 µM
TGI (786-0 renal): > 52.6 µM
GI50 (TK-10 renal): 1.5 µM
TGI (TK-10 renal): > 100 µM
GI50 (NCI/ADR-RES ovarian): 0.366 µM
TGI (NCI/ADR-RES ovarian): 17.8 µM
GI50 (BT-549 breast): 0.859 µM
TGI (BT-549 breast): > 100 µM
GI50 (OVCAR-8 ovarian): 0.513 µM
TGI (OVCAR-8 ovarian): > 100 µM
GI50 (IGROV1 ovarian): 1.1 µM
TGI (IGROV1 ovarian): > 100 µM
GI50 (DU-145 prostate): 0.472 µM
GI50 (SNB-19 CNS): 0.504 µM
TGI (SNB-19 CNS): > 100 µM
GI50 (OVCAR-5 ovarian): 0.607 µM
TGI (OVCAR-5 ovarian): > 100 µM
GI50 (SK-MEL-28 melanoma): 1.41 µM
TGI (SK-MEL-28 melanoma): > 100 µM
GI50 (NCI-H460 lung): 0.362 µM
TGI (NCI-H460 lung): > 100 µM
GI50 (U251 CNS): 0.374 µM
TGI (U251 CNS): 98.8 µM
